Source: paper PMC9298070, “Lack of a Clinically Meaningful Drug Interaction Between the HIV‐1 Antiretroviral Agents Islatravir, Dolutegravir, and Tenofovir Disoproxil Fumarate” (Clinical Pharmacology in Drug Development, 2021)
Like-named read-outs stand apart in the source and are kept apart here.

Experiments:
CYP1A2 = tested on: CYP1A2; set-up: method as in PMID 34452431; details: at concentrations up to 100 μM; cited from earlier work
CYP2B6 = tested on: CYP2B6; set-up: method as in PMID 34452431; details: at concentrations up to 100 μM; cited from earlier work
CYP2C9 = tested on: CYP2C9; set-up: method as in PMID 34452431; details: at concentrations up to 100 μM; cited from earlier work
CYP3A4 = tested on: CYP3A4; set-up: method as in PMID 34452431; details: up to 200 μM; cited from earlier work
CYP2D6 = tested on: CYP2D6; set-up: method as in PMID 34452431; details: at concentrations up to 100 μM; cited from earlier work
CYP2C8 = tested on: CYP2C8; set-up: method as in PMID 34452431; details: at concentrations up to 100 μM; cited from earlier work
HIV‐1 [1] = tested on: HIV‐1; set-up: method as in PMID 31911147; details: single oral dose as low as 0.5 mg, treatment-naive adults with HIV-1; cited from earlier work
[2] = Plasma pharmacokinetics in phase 1, open-label, fixed-sequence, 2-period drug interaction trial (MK-8591-005); format: in vivo, human
Method: (§1) This was a phase 1, open‐label, fixed‐sequence, 2‐period trial in adults without HIV (protocol MK‐8591‐005). In period 1, participants received a single oral dose of 20 mg islatravir. In period 2, participants received multiple oral doses of 50 mg dolutegravir and 300 mg TDF once daily for 11 consecutive days (days 1‐11), with a single oral dose of 20 mg islatravir coadministered on day 8. There was a washout period of ≥7 days between islatravir dosing in period 1 and the first dose of dolutegravir and TDF in period 2 (Figure 1).
Blood samples for islatravir plasma analysis were collected before dosing and at selected time points over 96 hours following administration of islatravir on day 1 of period 1 and day 8 of period 2. In period 2, samples taken at 24, 48, and 72 hours for islatravir plasma analysis were collected before dose administration of dolutegravir and TDF. Blood samples for plasma analysis of dolutegravir and tenofovir were collected before dosing on days 1, 7, and 8 of period 2 and at selected time points over 24 hours after dosing on days 7 and 8 of period 2. The 24 hour samples for dolutegravir and tenofovir analysis for days 7 and 8 were collected before dosing of dolutegravir and TDF.
Plasma concentrations of islatravir, dolutegravir, and tenofovir were determined by inVentiv Health Clinique (Québec City, Québec, Canada) using validated high‐performance liquid chromatography coupled to tandem mass spectrometry methods.
Islatravir (m/z 294.000/154.000) was extracted using an automated protein precipitation method using [^13C,^15N3]‐ISL as internal standard (m/z 297.800/158.000). The extracted samples were assessed on a system equipped with a X Select HSS T3 C18, 50×2.1 mm, 2.5 μm column with water/acetonitrile with formic acid mobile phase. […] The lower limit of quantitation for islatravir was 0.10 ng/mL, with an analytical range of 0.10 to 100.00 ng/mL.
Dolutegravir (m/z 420.200/277.200) was extracted using an automated protein precipitation method using [C^13‐d5]‐dolutegravir as the internal standard (m/z 426.300/277.300). The extracted samples were assessed on a system equipped with an ACE 3 C18, 30 × 4.6 mm, 3 μm column (Avantor, Radnor, Pennsylvania) with water/methanol with ammonium formate and formic acid mobile phase. […] The lower limit of quantitation for dolutegravir was 10.00 ng/mL, with an analytical range of 10.00 to 10 000.00 ng/mL.
Tenofovir (m/z 288.200/176.200) was extracted using an automated solid phase extraction using tenofovir‐d6 as internal standard (m/z 294.100/182.300). The extracted samples were assessed on a system equipped with an Atlantis dC18, 75 × 4.6 mm, 3 μm column (Waters Corp., Milford, Massachusetts) with water/acetonitrile with ammonium formate and formic acid mobile phase. […] The lower limit of quantitation for tenofovir was 0.50 ng/mL, with an analytical range of 0.50 to 500.00 ng/mL.
Plasma islatravir, dolutegravir, and tenofovir pharmacokinetics were summarized descriptively. Pharmacokinetic parameter values were calculated using the software Phoenix WinNonlin version 6.3 (Certara, Princeton, New Jersey). Cmax, C24, and tmax values were obtained directly from the observed plasma concentration–time data.

CYP2C19 = tested on: CYP2C19; set-up: method as in PMID 34452431; details: at concentrations up to 100 μM; cited from earlier work
[3] = set-up: method as in ref 14, 15 = [14]; 14 Rudd D , Cao Y , Vaddady P , et al. Modeling‐supported islatravir dose selection for phase 3 . Poster presented at Conference on Retroviruses and Opportunistic Infections (CROI); March 8–10 , 2020 || [15]; 15 Matthews RP , Rudd JD , Levine V , et al. Multiple daily doses of MK‐8591 as low as 0.25 mg are expected to suppress HIV . Oral presentation at Conference on Retroviruses and Opportunistic Infectio; details: single oral doses of islatravir, adults without HIV; cited from earlier work
HIV‐1 [4] = tested on: HIV‐1; set-up: method as in ref 17 = [17]; 17 Molina JM , Yazdanpanah Y , Afani Saud A , et al. MK‐8591 at doses of 0.25 to 2.25 mg QD, in combination with doravirine establishes and maintains viral suppression through 48 weeks in treatment‐na; details: islatravir in combination with doravirine, treatment-naive adults with HIV-1, phase 2b; cited from earlier work
[5] = tested on: uridine diphosphate glucuronosyltransferase 1A1; set-up: method as in PMID 34452431; details: at concentrations up to 100 μM; cited from earlier work
[6] = set-up: method as in PMID 34452431; details: cited from earlier work
[7] = Safety and tolerability in the phase 1 trial (adverse event reports, laboratory tests, ECG, vital signs); format: in vivo, human; details: for participants reporting AEs considered drug-related: of 12 participants; for tolerability: adults without HIV, N = 12
Method: as §1
Safety and tolerability were monitored by repeated clinical and laboratory evaluations for the duration of the trial. Safety evaluations included adverse event (AE) reports, laboratory tests, 12‐lead electrocardiograms, and vital signs.
Incidence of adverse experiences was descriptively summarized.

In the case of `C#C[C@]1(CO)O[C@@H](n2cnc3c(N)nc(F)nc32)C[C@@H]1O` [Islatravir, 4′‐Ethynyl‐2‐fluoro‐2′‐deoxyadenosine], the “inhibitory effect on CYP1A2” value (CYP1A2) is given as “no inhibitory effect”, the “inhibitory effect on CYP2B6” value (CYP2B6) is given as “no inhibitory effect” and the “inhibitory effect on CYP2C9” value (CYP2C9) is given as “no inhibitory effect”. The “inhibitory effect on CYP3A4” value (CYP3A4) was “no inhibitory effect”, the “inhibitory effect on CYP2D6” value (CYP2D6) was “no inhibitory effect” and the “inhibitory effect on CYP2C8” value (CYP2C8) was “no inhibitory effect”. For the same molecule, the “duration of effective viral suppression” value (HIV‐1 [1]) was “up to 7 days”, the “increase of islatravir AUC0‐inf on coadministration” value ([2]; coadministration with steady-state dolutegravir and TDF compared with islatravir administered alone) was 28% and the half-life ([2]; human, oral, plasma islatravir, single 20 mg islatravir on day 8 with 50 mg dolutegravir + 300 mg TDF once daily, period 2, N = 12, read-out: Apparent terminal t1/2, geometric mean (geometric CV %) (converted)) was 55.9 h. It also gave an AUC ([2]; human, plasma, oral, plasma islatravir, single 20 mg islatravir on day 8 with 50 mg dolutegravir + 300 mg TDF once daily days 1-11, period 2, N = 12, read-out: AUC0‐inf, AM (SD)) of 2.53 µM·h, an AUC ([2]; human, plasma, oral, plasma islatravir, single 20 mg islatravir on day 8 with 50 mg dolutegravir + 300 mg TDF once daily days 1-11, period 2, N = 12, read-out: AUC0‐inf, GM (95%CI)) of 2.51 µM·h and a Cmax ([2]; human, plasma, oral, plasma islatravir, single 20 mg islatravir on day 8 with 50 mg dolutegravir + 300 mg TDF once daily days 1-11, period 2, N = 12, read-out: Cmax, AM (SD)) of 522 nM. It also gave a Cmax ([2]; human, plasma, oral, plasma islatravir, single 20 mg islatravir on day 8 with 50 mg dolutegravir + 300 mg TDF once daily days 1-11, period 2, N = 12, read-out: Cmax, GM (95%CI)) of 510 nM, a half-life ([2]; human, plasma, oral, plasma islatravir, single 20 mg islatravir on day 8 with 50 mg dolutegravir + 300 mg TDF once daily, period 2, N = 12, read-out: Apparent terminal t1/2, AM (SD) (converted)) of 56.2 h and an AUC ([2]; human, plasma, po, 20 mg, plasma islatravir, islatravir alone, single oral 20 mg, day 1 period 1, N = 12, read-out: AUC0‐inf, AM (SD)) of 2 µM·h. For the same molecule, the AUC ([2]; human, plasma, po, 20 mg, plasma islatravir, islatravir alone, single oral 20 mg, day 1 period 1, N = 12, read-out: AUC0‐inf, GM (95%CI)) was 1.97 µM·h, the half-life ([2]; human, plasma, po, 20 mg, plasma islatravir, islatravir alone, single oral 20 mg, day 1 period 1, N = 12, read-out: Apparent terminal t1/2, AM (SD) (converted)) was 57.2 h and the half-life ([2]; human, plasma, po, 20 mg, plasma islatravir, islatravir alone, single oral 20 mg, day 1 period 1, N = 12, read-out: Apparent terminal t1/2, geometric mean (geometric CV %) (converted)) was 56.6 h. The Cmax ([2]; human, plasma, po, 20 mg, plasma islatravir, islatravir alone, single oral 20 mg, day 1 period 1, N = 12, read-out: Cmax, AM (SD)) was 495 nM, the Cmax ([2]; human, plasma, po, 20 mg, plasma islatravir, islatravir alone, single oral 20 mg, day 1 period 1, N = 12, read-out: Cmax, GM (95%CI)) was 479 nM and the Tmax ([2]; human, plasma, po, 20 mg, plasma islatravir, islatravir alone, single oral 20 mg, day 1 period 1, N = 12, read-out: tmax, median (min‐max)) was 0.75 h. The “tmax, median (min‐max)” value ([2]; plasma islatravir, single 20 mg islatravir on day 8 with 50 mg dolutegravir + 300 mg TDF once daily, period 2, N = 12) was 1.00 (0.50‐2.01) h, the “inhibitory effect on CYP2C19” value (CYP2C19) was “no inhibitory effect” and the “time to peak plasma concentrations” value [3] was “≈ 0.5 hours”. The “duration of maintained virologic suppression” value (HIV‐1 [4]) was “up to 48 weeks”, the “inhibitory effects on uridine diphosphate glucuronosyltransferase 1A1” value [5] was “No inhibitory effects” and the plasma protein binding [6] was “low”. For the same molecule, the “participants reporting AEs considered drug-related” value ([7]; after administration of islatravir) was 3 participants, the “participants reporting AEs considered drug-related” value ([7]; after coadministration of all 3 therapies (islatravir, dolutegravir, TDF)) was 1 participant and the tolerability ([7]; islatravir alone, single oral 20 mg) was “generally well tolerated”. The tolerability ([7]; islatravir in combination with dolutegravir and TDF) was “generally well tolerated”.
